Test results as given in ChEMBL document CHEMBL1151565, “Biological evaluation of two potent inhibitors of Trypanosoma cruzi epimastigotes against the intracellular form of the parasite” (1996).
Where “and” joins values, the source holds several entries; their conditions need not be identical. Identical values can stand only once.

Tests used:
Assay type in all cases: functional
[1] = Compound was tested for its activity against T. cruzi-infected L6E9 myoblasts at no concentration at 72h.
[2] = Compound was tested for its activity against T. cruzi-infected L6E9 myoblasts at no concentration at 24 h.
[3] = Compound was tested for its activity against T. cruzi-infected L6E9 myoblasts expressed as parasites number per 100 myoblasts at no concentration at 48 hr.
[4] = Compound was tested for its activity against T. cruzi-infected L6E9 myoblasts at a concentration of 10 ug/mL.
[5] = Compound was tested for its activity against T. cruzi-infected L6E9 myoblasts at a concentration of 5 ug/mL.
[6] = Compound was tested for its activity against T. cruzi-infected L6E9 myoblasts expressed as parasites number per 100 myoblasts at a concentration of 5 ug/mL.
[7] = Compound was tested for its activity against T. cruzi-infected L6E9 myoblasts at no concentration at 48 hr.
[8] = Compound was tested for its activity against T. cruzi-infected L6E9 myoblasts expressed as parasites number per 100 myoblasts at no concentration at 72h.
[9] = Compound was tested for its activity against T. cruzi-infected L6E9 myoblasts at a concentration of 30 ug/mL.
[10] = Compound was tested for its activity against T. cruzi-infected L6E9 myoblasts expressed as parasites number per 100 myoblasts at no concentration at 24 h.
[11] = Compound was tested for its activity against T. cruzi-infected L6E9 myoblasts expressed as parasites number per 100 myoblasts at a concentration of 30 ug/mL.
[12] = Compound was tested for its activity against T. cruzi-infected L6E9 myoblasts at a concentration of 40 ug/mL.

Row | Compound | Myoblast with parasites [1] [%] | Myoblast with parasites [2] [%] | Parasites no. per 100 Myoblasts [3] | Myoblast with parasites [4] | Myoblast with parasites [5] | Parasites no. per 100 Myoblasts [6] | Myoblast with parasites [7] [%] | Parasites no. per 100 Myoblasts [8] | Myoblast with parasites [9] | Parasites no. per 100 Myoblasts [10] | Parasites no. per 100 Myoblasts [11] | Myoblast with parasites [12]
1 | c1ccc(Oc2ccc(OCCOC3CCCCO3)cc2)cc1 (stereo unspecified) | 18.25 | 21.25 | 107 | 21.25% and 12.5% | 22.5% and 22% | 90.25 and 113.75 | 24.5 | – | – | – | – | –
2 | CCSC(=O)OC/C=C(\C)CC/C=C(\C)CCC1OC1(C)C (stereo unspecified) | 20.5 | 21.25 | 118 | – | – | – | 16.25 | 694.5 | 23.25% and 9.75% | 46.5 | 77.75 and 27 | 10.25% and 2.75%
